Assays:
Aβ40 = Aβ40 (Homo sapiens, UniProt P05067); experiment: ThT Aβ aggregation assay (kinetic Thioflavin T fluorescence); type: biochemical; settings: 20 μM Aβ, DMSO control at 80 hr = 0% inhibition, number in parenthesis = compound ID 1027 in that experiment; for inhibition at 5 µM: 80 h, compound 5 μm (so in the source), read-out: % inhib Thioflavin T Aβ 40 (5 μm); for inhibition at 10 µM: compound 10 μM, read-out: % inhib Thioflavin T Aβ 40 10 μM
Procedure: Preparation of Aβ40 Stock Solutions
Aβ40 (1.0 mg) was pre-treated in a 1.5 mL microfuge tube with HFIP (1 mL) and sonicated for 20 min to disassemble any pre-formed Aβ aggregates. The HFIP was removed with a stream of argon and the Aβ dissolved in Tris base (5.8 mL, 20 mM, pH ˜10). The pH was adjusted to 7.4 with concentrated HCl (˜10 μL) and the solution filtered using a syringe filter (0.2 μm) before being used.
The kinetic ThT assay for Aβ aggregation is similar to that of Chalifour et al (Chalifour et al, 2003, J. Biol. Chem. 278:34874-81). Briefly, pre-treated Aβ40 or Aβ42 (40 μM in 20 mM Tris, pH 7.4) was diluted with an equal volume of 8 μM Thioflavin T (ThT) in Tris (20 mM, pH 7.4, 300 mM NaCl). Aliquots of Aβ/ThT (200 μL) were added to wells of a black polystyrene 96-well plate, followed by 2 μL of a compound in DMSO (variable concentration), or DMSO alone (controls). Incubations were performed in triplicate and were taken to contain 20 μM Aβ, various concentration of compound in 20 mM Tris, pH 7.4, 150 mM NaCl, 1% DMSO. Plates were covered with clear polystyrene lids and incubated at 37° C. in a Tecan Genios microplate reader.
Analysis of ThT and ThS Aggregation Assays
Fluorescence readings (λex=450 nm, λem=480 nm) were taken every 15 min., after first shaking at high intensity for 15 s and allowing to settle for 10 s before each reading. Active compounds attenuated the increase in fluorescence over time that occurred in controls. In FIGS. 1-7, the time this procedure was performed extended to 80 hours (rightmost part of X-axis), at which point fluorescence increase generally reached an asymptote. Applying a definition of DMSO control at 80 hr as 100% aggregation (0% inhibition) and DMSO control at 0 hr as 0% aggregation (100% inhibition), a % inhibition score where higher is better can be calculated for a given concentration of compound. By repeating this procedure over several concentrations, a […] (IC50) can be measured, as is given in the table below for some compounds.

[1] = biological target: Terminally biotinylated beta-amyloid (Aβ42) (Homo sapiens, UniProt P05067); experiment: Aβ42 biotinylated (biotin-AB) oligomerization assay, NeutrAvidin capture ELISA; type: biochemical; settings: approximate value; 1 hr oligomerization at room temperature; read-out: IC50 Aβ 42-bio
Procedure, shortened: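 Biotin-Aβ42, pretreated with HFIP/TFA to remove seeds, oligomerized 1 h at room temperature with compound in 20 mM sodium phosphate pH 7.5, 150 mM NaCl (DMSO up to 1%). Oligomers captured on NeutrAvidin plates, detected with streptavidin-HRP/TMB at 450 nm; IC50 approximate, in µM.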

Aβ40, sequence (P05067 672-711, species assumed): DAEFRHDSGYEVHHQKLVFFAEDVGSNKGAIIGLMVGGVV
Terminally biotinylated beta-amyloid (Aβ42), sequence (P05067 672-713, species assumed): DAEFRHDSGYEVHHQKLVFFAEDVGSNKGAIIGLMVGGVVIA

Compound: OC(c1cc(-c2cc(N3CCC(N4CCCC4)CC3)c3nonc3c2)cs1)C(F)(F)F (centres unmarked) [compound 1463]
- inhibition at 5 µM (Aβ40): 37%
- inhibition at 10 µM (Aβ40): 61%

Compound: OC(c1ccc(-c2cc(N3CCC(N4CCCC4)CC3)c3nonc3c2)s1)C(F)(F)F (centres unmarked) [compound 1464]
- inhibition at 10 µM (Aβ40): 35%
- IC50 [1]: > 20 µM

Compound: CN(C)CCCN(C)c1cc(-c2cccc(C(O)C(F)(F)F)c2)cc2nonc12 (centres unmarked) [compound 1465]
- inhibition at 5 µM (Aβ40): 44%
- IC50 [1]: > 20 µM

Compound: CN(C)C1CCN(c2cc(-c3cccc(C(O)C(F)(F)F)c3)cc3nonc23)CC1 (centres unmarked) [compound 1466]
- inhibition at 5 µM (Aβ40): 37%
- IC50 [1]: 4.1 µM

Compound: OC(c1ccccc1-c1cc(N2CCC(N3CCCC3)CC2)c2nonc2c1)C(F)(F)F (centres unmarked) [compound 1467]
- inhibition at 5 µM (Aβ40): 28%
- inhibition at 10 µM (Aβ40): 43%
- IC50 [1]: 5.1 µM

Compound: OC(c1ccc(-c2cc(N3CCC(N4CCCC4)CC3)c3nonc3c2)cc1)C(F)(F)F (centres unmarked) [compound 1468]
- inhibition at 5 µM (Aβ40): 44%
- inhibition at 10 µM (Aβ40): 65%
- IC50 [1]: 2.4 µM

Compound: CN(CCCN1CCCC1)c1cc(-c2cccc(C(O)C(F)(F)F)c2)cc2nonc12 (centres unmarked) [compound 1469]
- inhibition at 5 µM (Aβ40): 70%
- inhibition at 10 µM (Aβ40): 75%
- IC50 [1]: 2.4 µM

Compound: Brc1cc(N2CC(CN3CCOCC3)C2)c2nonc2c1 [compound 1470]
- inhibition at 10 µM (Aβ40): 62%
- IC50 [1]: > 20 µM

Compound: OC(c1ccccc1-c1cc(N2CC(CN3CCOCC3)C2)c2nonc2c1)C(F)(F)F (centres unmarked) [compound 1471]
- inhibition at 10 µM (Aβ40): 29%
- IC50 [1]: 4.4 µM

Compound: Brc1cc(N2CC(CN3CCCC3)C2)c2nonc2c1 [compound 1472, 6-bromo-4-(3-(pyrrolidin-1-ylmethyl)azetidin-1-yl)benzo[c][1,2,5]oxadiazole]
- inhibition at 10 µM (Aβ40): 65%
- IC50 [1]: 3.6 µM

Compound: c1cc(N2CC(CN3CCCC3)C2)c2nonc2c1 [compound 1473]
- inhibition at 10 µM (Aβ40): 31%
- IC50 [1]: 18.1 µM

Compound: OC(c1ccccc1-c1cc(N2CC(CN3CCCC3)C2)c2nonc2c1)C(F)(F)F (centres unmarked) [compound 1474]
- inhibition at 10 µM (Aβ40): 77%
- IC50 [1]: 3.1 µM

Compound: c1cncc(-c2cc(N3CC(CN4CCCC4)C3)c3nonc3c2)c1 [compound 1476]
- inhibition at 10 µM (Aβ40): 36%
- IC50 [1]: 12.2 µM

Compound: O=C(c1cc(N2CC(CN3CCCC3)C2)c2nonc2c1)C(F)(F)F [compound 1477]
- inhibition at 10 µM (Aβ40): 30%
- IC50 [1]: 1.83 µM

Compound: Clc1cc(Cl)cc(-c2cc(N3CC(CN4CCCC4)C3)c3nonc3c2)c1 [compound 1478]
- inhibition at 10 µM (Aβ40): 63%
- IC50 [1]: 1.82 µM

Compound: CS(=O)(=O)c1cccc(-c2cc(N3CC(CN4CCCC4)C3)c3nonc3c2)c1 [compound 1479]
- inhibition at 10 µM (Aβ40): 24%
- IC50 [1]: 7.94 µM

Compound: CC(=O)c1cccc(-c2cc(N3CC(CN4CCCC4)C3)c3nonc3c2)c1 [compound 1480]
- inhibition at 10 µM (Aβ40): 31%
- IC50 [1]: 6.33 µM

Compound: CS(=O)(=O)c1ccccc1-c1cc(N2CC(CN3CCCC3)C2)c2nonc2c1 [compound 1481]
- inhibition at 10 µM (Aβ40): 11%
- IC50 [1]: 6.14 µM

Compound: CC(=O)Nc1ccc(-c2cc(N3CC(CN4CCCC4)C3)c3nonc3c2)cc1 [compound 1482]
- inhibition at 10 µM (Aβ40): 41%
- IC50 [1]: 5.52 µM

Compound: COc1ccc(-c2cc(N3CC(CN4CCCC4)C3)c3nonc3c2)cc1OC [compound 1483]
- inhibition at 10 µM (Aβ40): 36%
- IC50 [1]: 8.21 µM

Compound: FC(F)(F)c1cccc(-c2cc(N3CC(CN4CCCC4)C3)c3nonc3c2)c1 [compound 1484]
- inhibition at 10 µM (Aβ40): 56%
- IC50 [1]: 6.5 µM

Compound: c1ccc2oc(-c3cc(N4CC(CN5CCCC5)C4)c4nonc4c3)cc2c1 [compound 1485]
- inhibition at 10 µM (Aβ40): 26%
- IC50 [1]: 2.63 µM

Compound: c1ccc(-c2cc(N3CC(CN4CCCC4)C3)c3nonc3c2)cc1 [compound 1486]
- inhibition at 10 µM (Aβ40): 32%
- IC50 [1]: 19.7 µM

Compound: CC(C)(C)c1ccc(-c2cc(N3CC(CN4CCCC4)C3)c3nonc3c2)cc1 [compound 1487]
- inhibition at 10 µM (Aβ40): 33%
- IC50 [1]: 0.62 µM

Compound: COc1ccc(-c2cc(N3CC(CN4CCCC4)C3)c3nonc3c2)cc1C [compound 1488]
- inhibition at 10 µM (Aβ40): 31%
- IC50 [1]: 8.69 µM

Compound: CC(C)c1ccc(-c2cc(N3CC(CN4CCCC4)C3)c3nonc3c2)cc1 [compound 1489]
- inhibition at 10 µM (Aβ40): 34%
- IC50 [1]: 1.6 µM

Compound: Cc1ccc(-c2cc(N3CC(CN4CCCC4)C3)c3nonc3c2)cc1Cl [compound 1490]
- inhibition at 10 µM (Aβ40): 27%
- IC50 [1]: 4.4 µM

Compound: c1ccc(Oc2ccc(-c3cc(N4CC(CN5CCCC5)C4)c4nonc4c3)cc2)cc1 [compound 1491]
- inhibition at 10 µM (Aβ40): 32%
- IC50 [1]: 0.52 µM

Compound: COc1ccc(-c2cc(N3CC(CN4CCCC4)C3)c3nonc3c2)cc1Cl [compound 1492]
- inhibition at 10 µM (Aβ40): 22%
- IC50 [1]: 4.8 µM

Compound: N#Cc1cccc(-c2cc(N3CC(CN4CCCC4)C3)c3nonc3c2)c1 [compound 1493]
- inhibition at 10 µM (Aβ40): 57%
- IC50 [1]: 12.9 µM

Compound: Cc1ccc(-c2cc(N3CC(CN4CCCC4)C3)c3nonc3c2)c2ccccc12 [compound 1494]
- inhibition at 10 µM (Aβ40): 45%
- IC50 [1]: 2.01 µM

Compound: FC(F)(F)Oc1ccccc1-c1cc(N2CC(CN3CCCC3)C2)c2nonc2c1 [compound 1495]
- inhibition at 10 µM (Aβ40): 64%
- IC50 [1]: 5.91 µM

Compound: Clc1ccc(-c2cc(N3CC(CN4CCCC4)C3)c3nonc3c2)cn1 [compound 1496]
- inhibition at 10 µM (Aβ40): 41%
- IC50 [1]: 13.5 µM

Compound: O=C(C1CN(c2cc(Br)cc3nonc23)C1)N1CCCC1 [compound 1497]
- inhibition at 10 µM (Aβ40): 65%
- IC50 [1]: > 20 µM

Compound: O=C(C1CN(c2cc(-c3cccc(C(O)C(F)(F)F)c3)cc3nonc23)C1)N1CCCC1 (centres unmarked) [compound 1498]
- inhibition at 10 µM (Aβ40): 48%
- IC50 [1]: 10.8 µM

Compound: OCc1ccccc1-c1cc(N2CC(CN3CCCC3)C2)c2nonc2c1 [compound 1499]
- inhibition at 10 µM (Aβ40): 34%
- IC50 [1]: 23.3 µM

Compound: COc1cccc(-c2cc(N3CC(CN4CCCC4)C3)c3nonc3c2)c1OC [compound 1500]
- inhibition at 10 µM (Aβ40): 51%
- IC50 [1]: > 20 µM

Compound: CS(=O)(=O)c1ccc(-c2cc(N3CC(CN4CCCC4)C3)c3nonc3c2)cc1 [compound 1501]
- inhibition at 10 µM (Aβ40): 48%
- IC50 [1]: > 20 µM

Compound: FC(F)(F)c1ccc(-c2cc(N3CC(CN4CCCC4)C3)c3nonc3c2)cc1 [compound 1502]
- inhibition at 10 µM (Aβ40): 55%
- IC50 [1]: 4.78 µM

Compound: CC(=O)N1CC=C(c2cc(N3CC(CN4CCCC4)C3)c3nonc3c2)CC1 [compound 1503]
- inhibition at 10 µM (Aβ40): 33%
- IC50 [1]: > 20 µM

Compound: c1ccc(Oc2ccccc2-c2cc(N3CC(CN4CCCC4)C3)c3nonc3c2)cc1 [compound 1504]
- inhibition at 10 µM (Aβ40): 72%
- IC50 [1]: 5.27 µM

Compound: Clc1cccc(-c2cc(N3CC(CN4CCCC4)C3)c3nonc3c2)c1 [compound 1505]
- inhibition at 10 µM (Aβ40): 62%
- IC50 [1]: 4.62 µM

Compound: Cc1cc(C)cc(-c2cc(N3CC(CN4CCCC4)C3)c3nonc3c2)c1 [compound 1506]
- inhibition at 10 µM (Aβ40): 44%
- IC50 [1]: 4.44 µM

Compound: CCCc1ccc(-c2cc(N3CC(CN4CCCC4)C3)c3nonc3c2)cc1 [compound 1507]
- inhibition at 10 µM (Aβ40): 83%
- IC50 [1]: 2.46 µM

Compound: c1cc(-c2cc(N3CC(CN4CCCC4)C3)c3nonc3c2)cs1 [compound 1509]
- inhibition at 10 µM (Aβ40): 71%
- IC50 [1]: > 20 µM

Compound: c1cc(-c2cc(N3CC(CN4CCCC4)C3)c3nonc3c2)co1 [compound 1510]
- inhibition at 10 µM (Aβ40): 65%
- IC50 [1]: > 20 µM

Compound: COc1cccc(OC)c1-c1cc(N2CC(CN3CCCC3)C2)c2nonc2c1 [compound 1511]
- inhibition at 10 µM (Aβ40): 27%
- IC50 [1]: 21.3 µM

Compound: CC(=O)c1ccc(-c2cc(N3CC(CN4CCCC4)C3)c3nonc3c2)cc1 [compound 1512]
- inhibition at 10 µM (Aβ40): 77%
- IC50 [1]: 12 µM

Compound: FC(F)(F)c1ccccc1-c1cc(N2CC(CN3CCCC3)C2)c2nonc2c1 [compound 1514]
- inhibition at 10 µM (Aβ40): 57%
- IC50 [1]: 11.2 µM

Compound: COc1ccc(-c2cc(N3CC(CN4CCCC4)C3)c3nonc3c2)c(OC)c1 [compound 1515]
- inhibition at 10 µM (Aβ40): 61%
- IC50 [1]: 16.7 µM

Compound: CN(C)C(=O)c1ccc(-c2cc(N3CC(CN4CCCC4)C3)c3nonc3c2)cc1 [compound 1516]
- inhibition at 10 µM (Aβ40): 47%
- IC50 [1]: > 20 µM

Compound: CN1CC=C(c2cc(N3CC(CN4CCCC4)C3)c3nonc3c2)CC1 [compound 1517]
- inhibition at 10 µM (Aβ40): 33%
- IC50 [1]: 6.8 µM

From US9938249B2, “Anti-amyloid compounds containing benzofurazan” (Treventis Corporation, priority 2014, dated 2018)
